According to patent publication US20120258980A1, “Antibacterial Agent for Drug-Resistant Bacteria, Method for Screening for Same, and Use of Same” (priority 2009, published 2012):
Values after ≈ are worked out from the molar mass of the structure shown.

Legend:
[1] = tested on: VRSA clinical isolates; experiment: microbe, parasite or virus in culture; assay type: cell-based; settings: Staphylococcus aureus
Experimental: (§1) Each of the bacterial strains listed in Table 1-1 was shake-cultured at 37° C. overnight in 4 mL of a medium (Tryptical Soy Broth: TSB, product of Becton Dickinson and Company). FDA209P was used as a control.
(§2) After completion of culturing, the resultant culture was suspended in a cation-adjusted Mueller Hinton Broth (CAMHB, product of Becton Dickinson and Company). Then, the obtained bacterial culture was adjusted in absorbance with the CAMHB so that the absorbance at 578 nm of the bacterial culture was adjusted to 0.3 measured by an absorption spectrometer. In addition, the resultant bacterial culture was 500-fold diluted with the CAMHB.
(§3) Each of the 500-fold diluted, pre-cultured bacterial cultures was added at 50 μL/well to the CAMHB containing the quinolones and the nybomycins at various concentrations (50 μL/well), followed by statically culturing at 37° C. overnight.
(§4) After completion of culturing, the growth of the bacteria was visually determined based on turbidity to measure MIC in each bacterial strain.
(§5) Here, the glycopeptides used were VCM and TEIC. The β-lactam used was OXA.

[2] = tested on: methicillin-susceptible S. aureus (MSSA), MRSA and mutants thereof; experiment: MIC measurement, Test Example 3 (MSSA, MRSA and sequential gyrA/grlA quinolone-resistant mutants); assay type: cell-based, Staphylococcus aureus; settings: for MIC: Staphylococcus aureus
Text: That is, the first-step quinolone-resistant mutants are bacterial strains which are the same as their parent strains (clinical isolates) except that the genes shown in the corresponding parts of Table 1-1 are mutated. The second-step quinolone-resistant mutants are bacterial strains which are the same as the first-step quinolone-resistant mutants except that the genes shown in the corresponding parts of Table 1-1 are further mutated. The third-step quinolone-resistant mutants are bacterial strains which are the same as the second-step quinolone-resistant mutants except that the genes shown in the corresponding parts of Table 1-1 are further mutated. The fourth-step quinolone-resistant strain is a bacterial strain which is the same as the third-step quinolone-resistant mutant bacteria except that the gene shown in the corresponding part of Table 1-1 is further mutated.
as §1, §2, §3, §4

[3] = tested on: MRSA, CA-MRSA and MSSA of Staphylococcus aureus; experiment: MIC measurement, Test Example 4 (MRSA, CA-MRSA and MSSA strains); assay type: cell-based; settings: for MIC: Staphylococcus aureus
Method in brief: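 S. aureus strains (FDA209P control) grown overnight in TSB at 37° C, resuspended in CAMHB, adjusted to A578 0.3 and diluted 500-fold. Equal volume added to CAMHB with serial compound concentrations, incubated statically overnight at 37° C. MIC read visually as lowest concentration without turbidity.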

[4] = tested on: VISA clinical isolates of MRSA (VI-MRSA) and of MSSA (VI-MSSA); experiment: microbe, parasite or virus in culture; assay type: cell-based, Staphylococcus aureus
Experimental: as §1, §2, §3, §4, §5

Cc1cc(=O)n(C)c2c3c4c(cc12)c(C)cc(=O)n4CO3 [DNM, deoxynybomycin]
MIC ([1]; VRS1, VRSA, Michigan): ≤ 0.063 µg/mL | MIC ([1]; VRS2, VRSA, Pennsylvania): 0.125 µg/mL (≈ 0.443 µM) | MIC ([1]; VRS3, VRSA, New York): ≤ 0.063 µg/mL | MIC ([1]; VRS4, VRSA, New York): ≤ 0.063 µg/mL | MIC ([1]; VRS5, VRSA, Michigan): ≤ 0.063 µg/mL | MIC ([1]; VRS6, VRSA, Michigan): ≤ 0.063 µg/mL | MIC ([1]; VRS7, VRSA, Michigan): 0.125 µg/mL (≈ 0.443 µM) | MIC ([2]; MR5867-2, second-step mutant, further gyrA S84L): ≤ 0.063 µg/mL | MIC ([2]; MR5867-3, third-step mutant, further grlA S80F): ≤ 0.063 µg/mL | MIC ([2]; MR5867-4, fourth-step mutant, further gyrA E88K): ≤ 0.063 µg/mL | MIC ([2]; MS5935-2, second-step mutant, further gyrA S84L): 0.5 µg/mL (≈ 1.77 µM) | MIC ([2]; MS5935-3, third-step mutant, further grlA E84K): 0.5 µg/mL (≈ 1.77 µM) | MIC ([2]; MS5952-2, second-step mutant, further gyrA S84L): 0.5 µg/mL (≈ 1.77 µM) | MIC ([2]; MS5952-3, third-step mutant, further grlA A116V): ≤ 0.063 µg/mL | antibacterial activity, comparison between NM and DNM ([2]; Table 1-2 strains): higher than that of NM | MIC ([3]; ATCC 29213 / MRSA / MSSA, ATCC 29213, MSSA): 16 µg/mL (≈ 56.7 µM) | MIC ([3]; COL, MRSA): > 64 µg/mL | MIC ([3]; FDA209P / MRSA / MSSA, FDA209P, MSSA): 8 µg/mL (≈ 28.3 µM) | MIC ([3]; ISA12-1, MRSA): 32 µg/mL (≈ 113 µM) | MIC ([3]; ISA12-2, MRSA): 16 µg/mL (≈ 56.7 µM) | MIC ([3]; ISA35-1, MRSA): 64 µg/mL (≈ 227 µM) | MIC ([3]; ISA37-1, MSSA): > 64 µg/mL | MIC ([3]; ISA49-1, MSSA): 16 µg/mL (≈ 56.7 µM) | MIC ([3]; ISA51-1, MSSA): 8 µg/mL (≈ 28.3 µM) | MIC ([3]; ISA56-3, MRSA): > 64 µg/mL | MIC ([3]; ISA58-1, MRSA): 8 µg/mL (≈ 28.3 µM) | MIC ([3]; ISA62-1, MRSA): > 64 µg/mL | MIC ([3]; ISA73-1, MSSA): > 64 µg/mL | MIC ([3]; KBSA32, MRSA): 32 µg/mL (≈ 113 µM) | MIC ([3]; KBSA34, MRSA): > 64 µg/mL | MIC ([3]; KBSA72, MRSA): ≤ 0.063 µg/mL | MIC ([3]; KBSA96, MRSA): ≤ 0.063 µg/mL | MIC ([3]; KBSA171, MRSA): ≤ 0.063 µg/mL | MIC ([3]; KSA24, MRSA): 0.125 µg/mL (≈ 0.443 µM) | MIC ([3]; KSA31, MRSA): 0.25 µg/mL (≈ 0.886 µM) | MIC ([3]; KSA36, MRSA): ≤ 0.063 µg/mL | MIC ([3]; MRSA / MSSA / NCTC 8325, NCTC 8325, MSSA): > 64 µg/mL | MIC ([3]; MRSA / MSSA / USA300, USA300 FPR3757, CA-MRSA): 0.125 µg/mL (≈ 0.443 µM) | MIC ([3]; MW2, CA-MRSA): 64 µg/mL (≈ 227 µM) | MIC ([3]; N315, MRSA): 32 µg/mL (≈ 113 µM) | antibacterial activity, comparison between NM and DNM ([3]; against Staphylococcus aureus): higher than that of NM | MIC ([4]; Staphylococcus aureus, 99/3700-W, VI-MRSA, The United Kingdom): 0.25 µg/mL (≈ 0.886 µM) | MIC ([4]; Staphylococcus aureus, 99/3759-V, VI-MRSA, The United Kingdom): 1 µg/mL (≈ 3.54 µM) | MIC ([4]; Staphylococcus aureus, 28160, VI-MRSA, South African Republic): 0.125 µg/mL (≈ 0.443 µM) | MIC ([4]; Staphylococcus aureus, 98141, VI-MRSA, France): 0.125 µg/mL (≈ 0.443 µM) | MIC ([4]; Staphylococcus aureus, A7 (JCSC4842), VI-MRSA, Taiwan): ≤ 0.063 µg/mL | MIC ([4]; Staphylococcus aureus, AMC11094, VI-MRSA, Korea): 0.125 µg/mL (≈ 0.443 µM) | MIC ([4]; Staphylococcus aureus, B7 (JCSC4852), VI-MRSA, Taiwan): 0.125 µg/mL (≈ 0.443 µM) | MIC ([4]; Staphylococcus aureus, BR1, VI-MRSA, Brazil): 0.25 µg/mL (≈ 0.886 µM) | MIC ([4]; Staphylococcus aureus, BR2, VI-MRSA, Brazil): 0.125 µg/mL (≈ 0.443 µM) | MIC ([4]; Staphylococcus aureus, BR3, VI-MRSA, Brazil): 0.125 µg/mL (≈ 0.443 µM) | MIC ([4]; Staphylococcus aureus, BR4, VI-MRSA, Brazil): 0.25 µg/mL (≈ 0.886 µM) | MIC ([4]; Staphylococcus aureus, BR5, VI-MRSA, Brazil): 0.25 µg/mL (≈ 0.886 µM) | MIC ([4]; Staphylococcus aureus, HIP06297, VI-MRSA, America): 0.125 µg/mL (≈ 0.443 µM) | MIC ([4]; Staphylococcus aureus, HIP06854, VI-MRSA, America): 0.5 µg/mL (≈ 1.77 µM) | MIC ([4]; Staphylococcus aureus, HIP07920, VI-MRSA, America): 0.25 µg/mL (≈ 0.886 µM) | MIC ([4]; Staphylococcus aureus, HIP07930, VI-MRSA, America): 0.5 µg/mL (≈ 1.77 µM) | MIC ([4]; Staphylococcus aureus, HIP08926, VI-MRSA, America): 0.5 µg/mL (≈ 1.77 µM) | MIC ([4]; Staphylococcus aureus, HIP09143, VI-MRSA, America): 0.5 µg/mL (≈ 1.77 µM) | MIC ([4]; Staphylococcus aureus, HIP09313, VI-MRSA, America): 0.125 µg/mL (≈ 0.443 µM) | MIC ([4]; Staphylococcus aureus, HIP09433, VI-MRSA, America): 0.5 µg/mL (≈ 1.77 µM) | MIC ([4]; Staphylococcus aureus, HIP09662, VI-MRSA, America): 0.25 µg/mL (≈ 0.886 µM) | MIC ([4]; Staphylococcus aureus, HIP09735, VI-MRSA, America): 0.5 µg/mL (≈ 1.77 µM) | MIC ([4]; Staphylococcus aureus, HIP09737, VI-MSSA, America): 1 µg/mL (≈ 3.54 µM) | MIC ([4]; Staphylococcus aureus, HIP09740, VI-MRSA, America): 0.25 µg/mL (≈ 0.886 µM) | MIC ([4]; Staphylococcus aureus, HIP10267, VI-MRSA, America): 0.25 µg/mL (≈ 0.886 µM) | MIC ([4]; Staphylococcus aureus, HIP10540, VI-MRSA, America): ≤ 0.063 µg/mL | MIC ([4]; Staphylococcus aureus, HIP12864, VI-MRSA, America): 0.125 µg/mL (≈ 0.443 µM) | MIC ([4]; Staphylococcus aureus, HIP13036, VI-MRSA, America): 0.25 µg/mL (≈ 0.886 µM) | MIC ([4]; Staphylococcus aureus, HIP13057, VI-MRSA, America): 0.125 µg/mL (≈ 0.443 µM) | MIC ([4]; Staphylococcus aureus, IL (HIP7737), VI-MRSA, America): 1 µg/mL (≈ 3.54 µM) | MIC ([4]; Staphylococcus aureus, JCSC7193, VI-MRSA, Thailand): 0.33 µg/mL (≈ 1.17 µM) | MIC ([4]; Staphylococcus aureus, JCSC7195, VI-MRSA, Thailand): 0.16 µg/mL (≈ 0.567 µM) | MIC ([4]; Staphylococcus aureus, JCSC7203, VI-MRSA, Thailand): 0.16 µg/mL (≈ 0.567 µM) | MIC ([4]; Staphylococcus aureus, LIM2, VI-MRSA, France): 0.25 µg/mL (≈ 0.886 µM) | MIC ([4]; Staphylococcus aureus, LY-1999-01, VI-MSSA, Oman): ≤ 0.063 µg/mL | MIC ([4]; Staphylococcus aureus, LY-1999-03, VI-MRSA, Oman): ≤ 0.063 µg/mL | MIC ([4]; Staphylococcus aureus, MI (HIP5827), VI-MRSA, America): ≤ 0.063 µg/mL | MIC ([4]; Staphylococcus aureus, MRSA / MSSA / NRS 76 / VISA, NRS76, VI-MSSA, America): ≤ 0.063 µg/mL | MIC ([4]; Staphylococcus aureus, MRSA / MSSA / NRS 79 / VISA, NRS79, VI-MRSA, America): 1 µg/mL (≈ 3.54 µM) | MIC ([4]; Staphylococcus aureus, MRSA / MSSA / NRS 118 / VISA, NRS118, VI-MRSA, America): 2 µg/mL (≈ 7.08 µM) | MIC ([4]; Staphylococcus aureus, MRSA / MSSA / NRS 126 / VISA, NRS126, VI-MRSA, America): 0.5 µg/mL (≈ 1.77 µM) | MIC ([4]; Staphylococcus aureus, Mu3, VI-MRSA, Japan): 0.5 µg/mL (≈ 1.77 µM) | MIC ([4]; Staphylococcus aureus, Mu50, VI-MRSA, Japan): 0.25 µg/mL (≈ 0.886 µM) | MIC ([4]; Staphylococcus aureus, NJ (HIP5836), VI-MRSA, America): 0.25 µg/mL (≈ 0.886 µM) | MIC ([4]; Staphylococcus aureus, P1V44, VI-MSSA, Belgium): 0.5 µg/mL (≈ 1.77 µM) | MIC ([4]; Staphylococcus aureus, PC, VI-MRSA, America): 0.125 µg/mL (≈ 0.443 µM) | MIC ([4]; Staphylococcus aureus, SA MER-S6, VI-MSSA, France): > 64 µg/mL | MIC ([4]; Staphylococcus aureus, SA MER-S12, VI-MSSA, France): > 64 µg/mL | MIC ([4]; Staphylococcus aureus, SA MER-S20, VI-MSSA, France): > 64 µg/mL
